Assay results: the supplement of paper PMC10307832

What was measured:
Assay in all cases: relative viability (nuclei count vs DMSO), 5 days (fraction); higher = more cells survive
VE-821 = compound: CS(=O)(=O)c1ccc(-c2cnc(N)c(C(=O)Nc3ccccc3)n2)cc1 [VE-821]
How it was run: (§1)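 Lung cancer cell lines in 1536-well plates were exposed by pinning to five library-drug doses (not always all listed) √10 apart, following an overnight hold at 37 °C. MetaXpress counted Hoechst-stained nuclei from 4× images taken after 5 days without medium change. Viability is the median ratio of treated-well to vehicle-well nuclei across plates. Plates required control CV below 25% and at least one doubling.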

Vismodegib = compound: CS(=O)(=O)c1ccc(C(=O)Nc2ccc(Cl)c(-c3ccccn3)c2)c(Cl)c1 [Vismodegib]
How it was run: as §1

Ruxolitinib = compound: N#CC[C@H](C1CCCC1)n1cc(-c2ncnc3[nH]ccc23)cn1 [Ruxolitinib]
How it was run: as §1

For 201T, the relative viability (VE-821; 0.08 µM) was 1.03, the relative viability (VE-821; 0.253 µM) was 0.94 and the relative viability (VE-821; 0.8 µM) was 0.937. For the same cell line, the relative viability (VE-821; 2.53 µM) was 1.01, the relative viability (VE-821; 8 µM) was 0.703 and the relative viability (Vismodegib; 0.08 µM) was 0.983. The relative viability (Vismodegib; 0.253 µM) was 0.942, the relative viability (Vismodegib; 0.8 µM) was 0.977 and the relative viability (Vismodegib; 2.53 µM) was 0.964. The relative viability (Vismodegib; 8 µM) was 0.968, the relative viability (Ruxolitinib; 0.08 µM) was 1.05 and the relative viability (Ruxolitinib; 0.253 µM) was 1.1. The relative viability (Ruxolitinib; 0.8 µM) was 1.18, the relative viability (Ruxolitinib; 2.53 µM) was 1.19 and the relative viability (Ruxolitinib; 8 µM) was 1.1.

With A549 the relative viability (VE-821; 0.08 µM) was 1.11, the relative viability (VE-821; 0.253 µM) was 0.939 and the relative viability (VE-821; 0.8 µM) was 0.927. It also gave a relative viability (VE-821; 2.53 µM) of 0.954, a relative viability (VE-821; 8 µM) of 0.738 and a relative viability (Vismodegib; 0.08 µM) of 0.964. The relative viability (Vismodegib; 0.253 µM) was 0.91, the relative viability (Vismodegib; 0.8 µM) was 0.936 and the relative viability (Vismodegib; 2.53 µM) was 0.915. For the same cell line, the relative viability (Vismodegib; 8 µM) was 0.971, the relative viability (Ruxolitinib; 0.08 µM) was 0.934 and the relative viability (Ruxolitinib; 0.253 µM) was 0.965. The relative viability (Ruxolitinib; 0.8 µM) was 1.11, the relative viability (Ruxolitinib; 2.53 µM) was 0.941 and the relative viability (Ruxolitinib; 8 µM) was 0.736.

A-427 showed a relative viability (VE-821; 0.08 µM) of 1.1, a relative viability (VE-821; 0.253 µM) of 0.878 and a relative viability (VE-821; 0.8 µM) of 0.992. The relative viability (VE-821; 2.53 µM) was 0.986, the relative viability (VE-821; 8 µM) was 0.468 and the relative viability (Vismodegib; 0.08 µM) was 1. The relative viability (Vismodegib; 0.253 µM) was 0.94, the relative viability (Vismodegib; 0.8 µM) was 0.933 and the relative viability (Vismodegib; 2.53 µM) was 0.988. It also gave a relative viability (Vismodegib; 8 µM) of 1.01, a relative viability (Ruxolitinib; 0.08 µM) of 0.982 and a relative viability (Ruxolitinib; 0.253 µM) of 1.02. The relative viability (Ruxolitinib; 0.8 µM) was 1.12, the relative viability (Ruxolitinib; 2.53 µM) was 0.902 and the relative viability (Ruxolitinib; 8 µM) was 0.844.

Work on ABC-1 yielded a relative viability (VE-821; 0.08 µM) of 1.09, a relative viability (VE-821; 0.253 µM) of 0.882 and a relative viability (VE-821; 0.8 µM) of 0.907. The relative viability (VE-821; 2.53 µM) was 1.03, the relative viability (VE-821; 8 µM) was 0.749 and the relative viability (Vismodegib; 0.08 µM) was 0.963. The relative viability (Vismodegib; 0.253 µM) was 0.854, the relative viability (Vismodegib; 0.8 µM) was 0.96 and the relative viability (Vismodegib; 2.53 µM) was 0.81. The relative viability (Vismodegib; 8 µM) was 0.988, the relative viability (Ruxolitinib; 0.253 µM) was 1.01 and the relative viability (Ruxolitinib; 0.8 µM) was 1.11. For the same cell line, the relative viability (Ruxolitinib; 2.53 µM) was 0.882 and the relative viability (Ruxolitinib; 8 µM) was 0.782.

Work on BEN yielded a relative viability (VE-821; 0.08 µM) of 0.977, a relative viability (VE-821; 0.253 µM) of 1.01 and a relative viability (VE-821; 0.8 µM) of 0.849. It also gave a relative viability (VE-821; 2.53 µM) of 1.03, a relative viability (VE-821; 8 µM) of 0.885 and a relative viability (Vismodegib; 0.08 µM) of 1. For the same cell line, the relative viability (Vismodegib; 0.253 µM) was 1.02, the relative viability (Vismodegib; 0.8 µM) was 0.891 and the relative viability (Vismodegib; 2.53 µM) was 0.926. The relative viability (Vismodegib; 8 µM) was 1.02, the relative viability (Ruxolitinib; 0.08 µM) was 0.992 and the relative viability (Ruxolitinib; 0.253 µM) was 0.938. It also gave a relative viability (Ruxolitinib; 0.8 µM) of 1.14, a relative viability (Ruxolitinib; 2.53 µM) of 0.965 and a relative viability (Ruxolitinib; 8 µM) of 1.07.

For CAL-12T, the relative viability (VE-821; 0.08 µM) was 1.02, the relative viability (VE-821; 0.253 µM) was 0.947 and the relative viability (VE-821; 0.8 µM) was 1.04. For the same cell line, the relative viability (VE-821; 2.53 µM) was 0.927, the relative viability (VE-821; 8 µM) was 0.844 and the relative viability (Vismodegib; 0.08 µM) was 1.01. For the same cell line, the relative viability (Vismodegib; 0.253 µM) was 0.955, the relative viability (Vismodegib; 0.8 µM) was 0.976 and the relative viability (Vismodegib; 2.53 µM) was 0.945. The relative viability (Vismodegib; 8 µM) was 0.959, the relative viability (Ruxolitinib; 0.08 µM) was 0.918 and the relative viability (Ruxolitinib; 0.253 µM) was 0.997. It also gave a relative viability (Ruxolitinib; 0.8 µM) of 1.11, a relative viability (Ruxolitinib; 2.53 µM) of 0.792 and a relative viability (Ruxolitinib; 8 µM) of 0.696.

With COR-L23 the relative viability (VE-821; 0.08 µM) was 1.12, the relative viability (VE-821; 0.253 µM) was 0.953 and the relative viability (VE-821; 0.8 µM) was 1.15. The relative viability (VE-821; 2.53 µM) was 1.11, the relative viability (VE-821; 8 µM) was 0.866 and the relative viability (Vismodegib; 0.08 µM) was 0.981. It also gave a relative viability (Vismodegib; 0.253 µM) of 0.933, a relative viability (Vismodegib; 0.8 µM) of 1.03 and a relative viability (Vismodegib; 2.53 µM) of 1.02. For the same cell line, the relative viability (Vismodegib; 8 µM) was 1.05, the relative viability (Ruxolitinib; 0.08 µM) was 1.07 and the relative viability (Ruxolitinib; 0.253 µM) was 0.995. For the same cell line, the relative viability (Ruxolitinib; 0.8 µM) was 1.09, the relative viability (Ruxolitinib; 2.53 µM) was 0.981 and the relative viability (Ruxolitinib; 8 µM) was 0.785.

COR-L 105 gave a relative viability (VE-821; 0.08 µM) of 0.782, a relative viability (VE-821; 0.253 µM) of 0.811 and a relative viability (VE-821; 0.8 µM) of 0.776. For the same cell line, the relative viability (VE-821; 2.53 µM) was 0.794, the relative viability (VE-821; 8 µM) was 0.574 and the relative viability (Vismodegib; 0.08 µM) was 0.968. It also gave a relative viability (Vismodegib; 0.253 µM) of 0.817, a relative viability (Vismodegib; 0.8 µM) of 0.959 and a relative viability (Vismodegib; 2.53 µM) of 0.961. It also gave a relative viability (Vismodegib; 8 µM) of 0.96, a relative viability (Ruxolitinib; 0.08 µM) of 0.76 and a relative viability (Ruxolitinib; 0.253 µM) of 0.863. The relative viability (Ruxolitinib; 0.8 µM) was 0.914, the relative viability (Ruxolitinib; 2.53 µM) was 0.824 and the relative viability (Ruxolitinib; 8 µM) was 0.695.

With Calu-6 the relative viability (VE-821; 0.08 µM) was 1.13, the relative viability (VE-821; 0.253 µM) was 0.97 and the relative viability (VE-821; 0.8 µM) was 0.905. It also gave a relative viability (VE-821; 2.53 µM) of 0.937, a relative viability (VE-821; 8 µM) of 0.607 and a relative viability (Vismodegib; 0.08 µM) of 1.03. It also gave a relative viability (Vismodegib; 0.253 µM) of 0.957, a relative viability (Vismodegib; 0.8 µM) of 1.03 and a relative viability (Vismodegib; 2.53 µM) of 1.01. It also gave a relative viability (Vismodegib; 8 µM) of 1.05, a relative viability (Ruxolitinib; 0.08 µM) of 1.03 and a relative viability (Ruxolitinib; 0.253 µM) of 1.03. The relative viability (Ruxolitinib; 0.8 µM) was 1.12, the relative viability (Ruxolitinib; 2.53 µM) was 0.893 and the relative viability (Ruxolitinib; 8 µM) was 0.67.

In the case of ChaGo-K-1, the relative viability (VE-821; 0.08 µM) is reported as 1.03, the relative viability (VE-821; 0.253 µM) is reported as 0.882 and the relative viability (VE-821; 0.8 µM) is reported as 1. It also gave a relative viability (VE-821; 2.53 µM) of 0.967, a relative viability (VE-821; 8 µM) of 0.738 and a relative viability (Vismodegib; 0.08 µM) of 0.932. For the same cell line, the relative viability (Vismodegib; 0.253 µM) was 1, the relative viability (Vismodegib; 0.8 µM) was 1.03 and the relative viability (Vismodegib; 2.53 µM) was 0.959. For the same cell line, the relative viability (Vismodegib; 8 µM) was 0.97, the relative viability (Ruxolitinib; 0.08 µM) was 1.04 and the relative viability (Ruxolitinib; 0.253 µM) was 0.928. For the same cell line, the relative viability (Ruxolitinib; 0.8 µM) was 0.947, the relative viability (Ruxolitinib; 2.53 µM) was 0.872 and the relative viability (Ruxolitinib; 8 µM) was 0.735.

Work on EBC-1 yielded a relative viability (VE-821; 0.08 µM) of 1.07, a relative viability (VE-821; 0.253 µM) of 0.894 and a relative viability (VE-821; 0.8 µM) of 0.865. For the same cell line, the relative viability (VE-821; 2.53 µM) was 1.05, the relative viability (VE-821; 8 µM) was 0.759 and the relative viability (Vismodegib; 0.08 µM) was 0.931. It also gave a relative viability (Vismodegib; 0.253 µM) of 0.965, a relative viability (Vismodegib; 0.8 µM) of 1.12 and a relative viability (Vismodegib; 2.53 µM) of 0.963. The relative viability (Vismodegib; 8 µM) was 1.06, the relative viability (Ruxolitinib; 0.08 µM) was 0.981 and the relative viability (Ruxolitinib; 0.253 µM) was 1.04. It also gave a relative viability (Ruxolitinib; 0.8 µM) of 1.1, a relative viability (Ruxolitinib; 2.53 µM) of 0.924 and a relative viability (Ruxolitinib; 8 µM) of 0.822.
